Test results published in ChEMBL document CHEMBL1151593, “Synthesis and nti-tubulin activity of aza-combretastatins” (Bioorg Med Chem Lett, 1994).

molecular target: Tubulin alpha chain (Sus scrofa, UniProt P02550); assay: Evaluated for the inhibitory concentration against porcine brain tubulin polymerization; type: functional
Sequence (P02550 whole entry, looked up): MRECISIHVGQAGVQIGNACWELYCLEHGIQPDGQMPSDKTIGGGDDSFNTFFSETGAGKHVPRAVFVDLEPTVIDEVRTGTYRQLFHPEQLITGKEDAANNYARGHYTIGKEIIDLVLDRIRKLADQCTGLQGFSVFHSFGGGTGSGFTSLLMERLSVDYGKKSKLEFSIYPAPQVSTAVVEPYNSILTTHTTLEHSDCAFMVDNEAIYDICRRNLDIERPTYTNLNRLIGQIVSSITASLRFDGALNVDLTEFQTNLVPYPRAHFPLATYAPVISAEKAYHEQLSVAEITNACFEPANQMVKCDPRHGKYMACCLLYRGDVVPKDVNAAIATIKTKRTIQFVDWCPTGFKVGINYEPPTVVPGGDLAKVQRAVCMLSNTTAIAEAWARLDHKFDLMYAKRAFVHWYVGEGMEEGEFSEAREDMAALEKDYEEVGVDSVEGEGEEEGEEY

Compound	IC50 [µM]
COc1ccc(NC(=O)c2cc(OC)c(OC)c(OC)c2)cc1O	> 100
COc1ccc(C(=O)N(C)c2cc(OC)c(OC)c(OC)c2)cc1O	> 100
COc1ccc(CNc2cc(OC)c(OC)c(OC)c2)cc1O	100
CCC(=O)N(Cc1cc(OC)c(OC)c(OC)c1)c1ccc(OC)c(O)c1	> 100
COc1ccc(N(C)Cc2cc(OC)c(OC)c(OC)c2)cc1O	45
COc1ccc(C(=O)Nc2cc(OC)c(OC)c(OC)c2)cc1O	> 100
COc1ccc(N(Cc2cc(OC)c(OC)c(OC)c2)C(C)=O)cc1O	> 100
COc1ccc(CN(C)c2cc(OC)c(OC)c(OC)c2)cc1O	100
COc1ccc(NCc2cc(OC)c(OC)c(OC)c2)cc1O	100
COc1ccc(N(C)C(=O)c2cc(OC)c(OC)c(OC)c2)cc1O	> 100

Other lines, results leading:

IC50 [µM]	Compound
15	CCN(Cc1cc(OC)c(OC)c(OC)c1)c1ccc(OC)c(O)c1
7.5	CCCCN(Cc1cc(OC)c(OC)c(OC)c1)c1ccc(OC)c(O)c1
20	CCCCCCN(Cc1cc(OC)c(OC)c(OC)c1)c1ccc(OC)c(O)c1
20	COc1ccc(N(CCCCCO)Cc2cc(OC)c(OC)c(OC)c2)cc1O
20	CCCCCN(Cc1cc(OC)c(OC)c(OC)c1)c1ccc(OC)c(O)c1
40	COc1ccc(N(CCCC(=O)O)Cc2cc(OC)c(OC)c(OC)c2)cc1O
5.4	CCCN(Cc1cc(OC)c(OC)c(OC)c1)c1ccc(OC)c(O)c1
